Test results from US9567371B2, “Short beta-defensin-derived peptides” (Yeda Research and Development Co. Ltd., priority 2009, dated 2017).
Peptide text beside a SMILES is read from it.

Assays:
pre-B-ALL G2 cells = assay: Cell toxicity assay (propidium iodide exclusion, flow cytometry); assay type: cell-based, human; conditions: 6 and 24 h, FIG. 1
Method: FIG. 1. […] G2 cells (1×10^6/ml) were cultured in 96-well flat-bottom wells in serum free IMDEM culture medium supplemented with L-glutamine and antibiotics, for 6 and 24 h at 37° C. with the indicated peptides. Untreated cells served as a control. After treatment, cells were stained with propidium iodide (PI) and its exclusion was analyzed by flow cytometry. Data shown are the percentage of Pr (dead) cells. Vertical bars represent standard deviation of duplicate experiments. *P<0.05 compared to untreated control.
Pre-B-ALL G2 cells and freshly isolated primary human CD3^+ T cells (1×10^6/ml) were cultured in 96-well flat-bottom wells in serum free IMDM or RPMI 1640 medium, respectively, both supplemented with L-glutamine and antibiotics, for 6 and 24 hrs at 37° C. (95% humidity, 5% CO2) with 10 μM, 100 μM or 1 mM of the peptides. Untreated cells served as a control. Cell viability was determined by propidium iodide (PI) exclusion by flow cytometry as described (Goichberg, P., et al., 2006).
In order to test cytotoxicity of the peptides, human pre-B-ALL G2 cells and freshly isolated primary human CD3^+ T cells (1×10^6/ml) were cultured in with 10 μM, 100 μM or 1 mM of TL-1, AK-1 and cyclic TL-1, as described in the Material and Methods. All tested peptides were not toxic for G2 cells (FIG. 1) as well as for primary human T cells at 10 μM and 100 μM. Even in the highest concentration, 1 mM, the peptides killed only 8-12% and 14-16% cells treated for 6 and 24 hrs, respectively, indicating a very low cytotoxicity of the peptides.

MS-5 cells = assay: SDF-1, bFGF and HGF secretion by stromal cells (ELISA of supernatants); assay type: cell-based, mouse; conditions: 10 μM, compared with untreated cells
Method: (§1) FIGS. 7A-7F. Effect of TL-1, AK-1 and cyclic TL-1 on SDF-1, bFGF and HGF secretion by different stromal cell lines. MS-5, MBA-15 and MG-63 cells were co-cultured with 10 μM TL-1, AK-1 or cyclic TL-1 in the serum free medium for 6 hrs, or without added peptide (UT). Levels of SDF-1 (A-C), bFGF (D) and HGF (E, F) were detected in the collected supernatants by ELISA. Data shown are the mean±SD of 2 separate experiments. *P<0.05 compared to control.
(§2) SDF-1 levels in tested samples were determined by ELISA as described (Kalinkovich, A., et al., 2006) where the K15C monoclonal antibodies (mAb, INRA, Paris, France) recognizing the first three amino acids of SDF-1 were utilized as a capture Ab (10 μg/mL) in order to measure levels of intact, non-cleaved SDF-1. Levels of basic FGF (bFGF) and HGF in tested samples were determined by using corresponding capture mAbs and polyclonal biotynilated Abs (R&D Systems) as recommended by the manufacturer. In order to examine SDF-1, bFGF and HGF levels in cell supernatants, MS-5, MBA-15 and MG-63 cells were seeded in 24-well Costar wells and cultivated in RPMI 1640 or αMEM Eagle medium, respectively, with 10% FCS. When the cells reached confluence, the medium was changed to serum free medium and cells were cultivated for additional 6 hrs in the presence of various concentrations of the peptides. Medium samples were collected and centrifuged 10 min at 6000×g at 4° C. to remove cell debris. Supernatants were collected and kept at −70° C. until tested.
(§3) Because BM stromal cells, such as endosteal bone lining osteoblasts and endothelial cells are the main source of human and murine SDF-1, the capability of the peptides to affect SDF-1 secretion by mouse stromal MS-5 and MBA-15 cells, and human osteoblast MG-63 cells was examined.
(§4) In order to examine the capability of the peptides to induce secretion of other proteins, the levels of Hepatocyte growth factor (HGF) and Basic fibroblast growth factor (bFGF) were detected in the same supernatants.

MBA-15 cells = assay: as above; assay type: cell-based, mouse; conditions: 10 μM, compared with untreated cells
Method: as §1, §2, §3, §4

MG-63 cells = assay: as above; assay type: cell-based, human; conditions: 10 μM, compared with untreated cells
Method: as §1
as §2, with “When the cells reached confluence, the medium was changed to serum free medium and cells were cultivated for additional 6 hrs in the presence of various concentrations of the peptides. Medium samples were collected and centrifuged 10 min at 6000×g at 4° C. to remove cell debris. Supernatants were collected and kept at −70° C. until tested.” left out
as §4

SDF-1 = SDF-1 plasma levels in injected mice (ELISA); assay type: in vivo, mouse; conditions: 5 mg/kg s.c., compared with mice injected with PBS
Method: as §2

Compound	cellular toxicity (percentage of PI+ dead cells) (pre-B-ALL G2 cells)	levels of SDF-1 in supernatants (MS-5 cells)	levels of SDF-1 in supernatants (MBA-15 cells)	levels of SDF-1 in supernatants (MG-63 cells)	SDF-1 plasma levels (SDF-1)
N=C(N)NCCC[C@H](NC(=O)CNC(=O)[C@@H](N)CO)C(=O)N[C@@H](CCCCN)C(=O)N[C@@H](CS)C(=O)N[C@@H](CS)C(=O)N[C@@H](CCCNC(=N)N)C(=O)N[C@@H](CCCCN)C(=O)N[C@@H](CCCCN)C(=O)N[C@@H](CCCCN)C(=O)O [AK-1, SGRKCCRKKK] (H-SGRKCCRKKK-OH)	Low cellular toxicity				
c1cc(CN2CCCNCCNCCCNCC2)ccc1CN1CCCNCCNCCCNCC1 [AMD3100, reference compound]		did not affect	did not affect	did not affect	significant elevation
N=C(N)NCCC[C@H](NC(=O)CNC(=O)[C@@H](N)CCCNC(=N)N)C(=O)N[C@@H](CCCCN)C(=O)N[C@@H](CS)C(=O)N[C@@H](CS)C(=O)N[C@@H](CCCNC(=N)N)C(=O)N[C@@H](CCCNC(=N)N)C(=O)N[C@@H](CCCCN)C(=O)N[C@@H](CCCCN)C(=O)O [TL-1, RGRKCCRRKK] (H-RGRKCCRRKK-OH)	Low cellular toxicity				
